From patent US20120220562A1, “Anti-Viral Compounds” (ABBOTT LABAORATORIES, priority 2011, published 2012)

Each compound was assayed on HCV 1b-Con1 replicon (assay: HCV 1b-Con1 replicon assay in the presence of 5% FBS). Conditions: Hepatitis C virus.
Assay type: cell-based
`COC(=O)N[C@H](C(=O)N1CCC[C@H]1c1nc2cc([C@H]3CC[C@H](c4ccc5nc([C@@H]6CCCN6C(=O)[C@@H](NC(=O)OC)C(C)C)[nH]c5c4)N3c3ccc(F)c(F)c3)ccc2[nH]1)C(C)C` [Example 4.9, methyl {(2S)-1-[(2S)-2-{5-[(2R,5R)-1-(3,4-difluorophenyl)-5-{2-[(2S)-1-{(2S)-2-[(methoxycarbonyl)amino]-3-methylbutanoyl}pyrrolidin-2-yl]-1H-benzimidazol-6-yl}pyrrolidin-2-yl]-1H-benzimidazol-2-yl}pyrrolidin-1-yl]-3-methyl-1-oxobutan-2-yl}carbamate] was tested, and the EC50 was < 0.1 nM.
In the case of `COC(=O)N[C@H](C(=O)N1CCC[C@H]1c1nc2ccc([C@H]3CC[C@H](c4ccc5nc([C@@H]6CCCN6C(=O)[C@@H](NC(=O)OC)C(C)C)[nH]c5c4)N3c3cc(F)c(N4CCC(C)CC4)c(F)c3)cc2[nH]1)C(C)C` [Example 2.9, methyl {(2S)-1-[(2S)-2-{6-[(2R,5R)-1-[3,5-difluoro-4-(4-methylpiperidin-1-yl)phenyl]-5-{2-[(2S)-1-{(2S)-2-[(methoxycarbonyl)amino]-3-methylbutanoyl}pyrrolidin-2-yl]-1H-benzimidazol-6-yl}pyrrolidin-2-yl]-1H-benzimidazol-2-yl}pyrrolidin-1-yl]-3-methyl-1-oxobutan-2-yl}carbamate], the EC50 is reported as < 0.1 nM.
With `COC(=O)N[C@H](C(=O)N1CCC[C@H]1c1nc2cc([C@H]3CC[C@H](c4ccc5[nH]c([C@@H]6CCCN6C(=O)[C@@H](NC(=O)OC)C(C)C)nc5c4)N3c3ccc(Oc4ccccc4)cc3)ccc2[nH]1)C(C)C` [Example 1.1, methyl {(2S)-1-[(2S)-2-{5-[(2R,5R)-5-{2-[(2S)-1-{(2S)-2-[(methoxycarbonyl)amino]-3-methylbutanoyl}pyrrolidin-2-yl]-1H-benzimidazol-5-yl}-1-(4-phenoxyphenyl)pyrrolidin-2-yl]-1H-benzimidazol-2-yl}pyrrolidin-1-yl]-3-methyl-1-oxobutan-2-yl}carbamate] the EC50 was < 0.1 nM.
With `COC(=O)N[C@H](C(=O)N1CCC[C@H]1c1nc(-c2ccc([C@H]3CC[C@H](c4ccc(-c5c[nH]c([C@@H]6CCCN6C(=O)[C@@H](NC(=O)OC)C(C)C)n5)cc4)N3c3cc(F)c(N4CCC(c5ccccc5)CC4)c(F)c3)cc2)c[nH]1)C(C)C` [Example 9, methyl {(2S)-1-[(2S)-2-(4-{4-[(2R,5R)-1-[3,5-difluoro-4-(4-phenylpiperidin-1-yl)phenyl]-5-(4-{2-[(2S)-1-{(2S)-2-[(methoxycarbonyl)amino]-3-methylbutanoyl}pyrrolidin-2-yl]-1H-imidazol-4-yl}phenyl)pyrrolidin-2-yl]phenyl}-1H-imidazol-2-yl)pyrrolidin-1-yl]-3-methyl-1-oxobutan-2-yl}carbamate] the EC50 was < 0.1 nM.
`COC(=O)N[C@H](C(=O)N1CCC[C@H]1c1nc2cc([C@@H]3CC[C@@H](c4cc5nc([C@@H]6CCCN6C(=O)[C@@H](NC(=O)OC)C(C)C)[nH]c5cc4F)N3c3cc(F)c(N4CCN(c5c(F)cccc5F)CC4)c(F)c3)c(F)cc2[nH]1)C(C)C` [Example 3.50, methyl {(2S)-1-[(2S)-2-{5-[(2S,5S)-1-{4-[4-(2,6-difluorophenyl)piperazin-1-yl]-3,5-difluorophenyl}-5-{6-fluoro-2-[(2S)-1-{(2S)-2-[(methoxycarbonyl)amino]-3-methylbutanoyl}pyrrolidin-2-yl]-1H-benzimidazol-5-yl}pyrrolidin-2-yl]-6-fluoro-1H-benzimidazol-2-yl}pyrrolidin-1-yl]-3-methyl-1-oxobutan-2-yl}carbamate] was tested, and the EC50 was < 0.1 nM.
In the case of `COC(=O)N[C@H](C(=O)N1CCC[C@H]1c1nc2cc([C@H]3CC[C@@H](c4cc5[nH]c([C@@H]6CCCN6C(=O)[C@@H](NC(=O)OC)C(C)C)nc5cc4F)N3c3ccc(C(C)(C)C)cc3)c(F)cc2[nH]1)C(C)C` [Example 6.2, methyl {(2S)-1-[(2S)-2-{5-[(2R,5S)-1-(4-tert-butylphenyl)-5-{5-fluoro-2-[(2S)-1-(2S)-2-[(methoxycarbonyl)amino]-3-methylbutanoylpyrrolidin-2-yl]-1H-benzimidazol-6-yl}pyrrolidin-2-yl]-6-fluoro-1H-benzimidazol-2-yl}pyrrolidin-1-yl]-3-methyl-1-oxobutan-2-yl}carbamate], the EC50 is reported as < 0.1 nM.
In the case of `COC(=O)N[C@H](C(=O)N1CCC[C@H]1c1nc2cc([C@H]3CC[C@H](c4ccc5[nH]c([C@@H]6CCCN6C(=O)[C@@H](NC(=O)OC)C(C)C)nc5c4)N3c3cc(F)c(N4CC5CCC4CC5)c(F)c3)ccc2[nH]1)C(C)C` [Example 4.21, methyl {(2S)-1-[(2S)-2-{5-[(2R,5R)-1-[4-(2-azabicyclo[2.2.2]oct-2-yl)-3,5-difluorophenyl]-5-{2-[(2S)-1-{(2S)-2-[(methoxycarbonyl)amino]-3-methylbutanoyl}pyrrolidin-2-yl]-1H-benzimidazol-5-yl}pyrrolidin-2-yl]-1H-benzimidazol-2-yl}pyrrolidin-1-yl]-3-methyl-1-oxobutan-2-yl}carbamate], the EC50 is reported as < 0.1 nM.
`COC(=O)N[C@H](C(=O)N1CCC[C@H]1c1nc2ccc([C@H]3CC[C@H](c4ccc5nc([C@@H]6CCCN6C(=O)[C@@H](NC(=O)OC)C(C)C)[nH]c5c4)N3c3ccc(OCC(F)F)cc3)cc2[nH]1)C(C)C` [Example 4.11, methyl {(2S)-1-[(2S)-2-{6-[(2R,5R)-1-[4-(2,2-difluoroethoxy)phenyl]-5-{2-[(2S)-1-{(2S)-2-[(methoxycarbonyl)amino]-3-methylbutanoyl}pyrrolidin-2-yl]-1H-benzimidazol-6-yl}pyrrolidin-2-yl]-1H-benzimidazol-2-yl}pyrrolidin-1-yl]-3-methyl-1-oxobutan-2-yl}carbamate] was tested, and the EC50 was < 0.1 nM.
`COC(=O)N[C@H](C(=O)N1CCC[C@H]1c1nc2cc([C@@H]3CC[C@@H](c4ccc5[nH]c([C@@H]6CCCN6C(=O)[C@@H](NC(=O)OC)C(C)C)nc5c4)N3c3ccc(N4CCCCC4)c(F)c3)ccc2[nH]1)C(C)C` [Example 3.15, methyl {(2S)-1-[(2S)-2-{5-[(2S,55)-1-[3-fluoro-4-(piperidin-1-yl)phenyl]-5-{2-[(2S)-1-{(2S)-2-[(methoxycarbonyl)amino]-3-methylbutanoyl}pyrrolidin-2-yl]-1H-benzimidazol-5-yl}pyrrolidin-2-yl]-1H-benzimidazol-2-yl}pyrrolidin-1-yl]-3-methyl-1-oxobutan-2-yl}carbamate] was tested, and the EC50 was < 0.1 nM.
`COC(=O)N[C@H](C(=O)N1CCC[C@H]1c1nc2cc([C@H]3CC[C@H](c4ccc5[nH]c([C@@H]6CCCN6C(=O)[C@@H](NC(=O)OC)C(C)C)nc5c4)N3c3ccc(Cl)cc3)ccc2[nH]1)C(C)C` [Example 3.4, methyl {(2S)-1-[(2S)-2-{5-[(2R,5R)-1-(4-chlorophenyl)-5-{2-[(2S)-1-{(2S)-2-[(methoxycarbonyl)amino]-3-methylbutanoyl}pyrrolidin-2-yl]-1H-benzimidazol-5-yl}pyrrolidin-2-yl]-1H-benzimidazol-2-yl}pyrrolidin-1-yl]-3-methyl-1-oxobutan-2-yl}carbamate] was tested, and the EC50 was < 0.1 nM.
With `COC(=O)N[C@@H](C(=O)N1c2ccccc2C[C@H]1c1nc2cc([C@H]3CC[C@H](c4ccc5[nH]c([C@@H]6Cc7ccccc7N6C(=O)[C@H](NC(=O)OC)C(C)C)nc5c4)N3c3cc(F)c(N4CCCCC4)c(F)c3)ccc2[nH]1)C(C)C` [Example 3.25, methyl {(2R)-1-[(2S)-2-{5-[(2R,5R)-1-[3,5-difluoro-4-(piperidin-1-yl)phenyl]-5-{2-[(2S)-1-{(2R)-2-[(methoxycarbonyl)amino]-3-methylbutanoyl}-2,3-dihydro-1H-indol-2-yl]-1H-benzimidazol-5-yl}pyrrolidin-2-yl]-1H-benzimidazol-2-yl}-2,3-dihydro-1H-indol-1-yl]-3-methyl-1-oxobutan-2-yl}carbamate] the EC50 was < 0.1 nM.
For `COC(=O)N[C@H](C(=O)N1CCC[C@H]1c1nc2cc([C@H]3CC[C@H](c4ccc5[nH]c([C@@H]6CCCN6C(=O)[C@@H](NC(=O)OC)C6CCOCC6)nc5c4)N3c3cc(F)c(N4CCC(c5ccccc5)CC4)c(F)c3)ccc2[nH]1)C(C)C` [Example 11.1, methyl [(1S)-2-[(2S)-2-{5-[(2R,5R)-1-[3,5-difluoro-4-(4-phenylpiperidin-1-yl)phenyl]-5-{2-[(2S)-1-{(2S)-2-[(methoxycarbonyl)amino]-3-methylbutanoyl}pyrrolidin-2-yl]-1H-benzimidazol-5-yl}pyrrolidin-2-yl]-1H-benzimidazol-2-yl}pyrrolidin-1-yl]-2-oxo-1-(tetrahydro-2H-pyran-4-yl)ethyl]carbamate], the EC50 was < 0.1 nM.
In the case of `COC(=O)N[C@H](C(=O)N1CCC[C@H]1c1nc2cc([C@H]3CC[C@H](c4cc5nc([C@@H]6CCCN6C(=O)[C@@H](NC(=O)OC)C6CCCC6)[nH]c5cc4F)N3c3cc(F)c(N4CCC(C(C)(C)C)CC4)c(F)c3)c(F)cc2[nH]1)C1CCCC1` [Example 4.28, dimethyl ({(2R,5R)-1-[4-(4-tert-butylpiperidin-1-yl)-3,5-difluorophenyl]pyrrolidine-2,5-diyl}bis{(6-fluoro-1H-benzimidazole-5,2-diyl)(2S)pyrrolidine-2,1-diyl[(1S)-1-cyclopentyl-2-oxoethane-2,1-diyl]})biscarbamate], the EC50 is reported as < 0.1 nM.
For `COC(=O)N[C@H](C(=O)N1CCC[C@H]1c1nc2cc(F)c([C@H]3CC[C@H](c4cc5[nH]c([C@@H]6CCCN6C(=O)[C@@H](NC(=O)OC)C6CCOCC6)nc5cc4F)N3c3cc(F)c(N4CCN(c5ccc(C(F)(F)F)cc5)CC4)c(F)c3)cc2[nH]1)C1CCOCC1` [Example 4.46, dimethyl ([(2R,5R)-1-(3,5-difluoro-4-{4-[4-(trifluoromethyl)phenyl]piperazin-1-yl}phenyl)pyrrolidine-2,5-diyl]bis{(5-fluoro-1H-benzimidazole-6,2-diyl)(2S)pyrrolidine-2,1-diyl[(1S)-2-oxo-1-(tetrahydro-2H-pyran-4-yl)ethane-2,1-diyl]})biscarbamate], the EC50 was < 0.1 nM.
With `COC(=O)N[C@H](C(=O)N1CCC[C@H]1c1nc2cc([C@H]3CC[C@H](c4ccc5[nH]c([C@@H]6CCCN6C(=O)[C@@H](NC(=O)OC)C(C)C)nc5c4)N3c3cc(F)c(N4CCC5(CC4)OCCO5)c(F)c3)ccc2[nH]1)C(C)C` [Example 5.14] the EC50 was < 0.1 nM.
